Assays:
[1] = tested on: diet induced obese (DIO) animals; test: Fixed dose of 4-hydroxyisoleucine in diet induced obese (DIO) animals, 21 days; assay type: in vivo, C57BL/6 mice; conditions: for Significance vs controls (P; body weight and body weight gain): 2 way ANOVA, Bonferroni
Protocol: C57BL/6 mice were fed a high fat diet (60% fat) for 6 weeks. […] This regime was continued for the remaining 21 day period and the dose given was not adjusted as the mice lost body weight. This method of dosing was designed to mimic the human situation when the quantity of drug given is not adjusted with progressive body weight loss. […] Statistical analysis of the data was performed using a 2 way ANOVA followed by Bonferroni comparisons. Food intake was measured daily and then combined over a 7 day period to calculate total consumption during each week of drug administration.

[2] = tested on: lean mice subjected to a high fat diet; test: Prevention of obesity in lean mice subjected to a high fat diet, 21 days; assay type: in vivo, C57BL/6 mice; conditions: for transient increase of caloric intake: HFD
Source text: C57BL/6 mice were fed a standard chow (LabDiet #5001; 12% of calories from fat) upon arrival and during the acclimation and pre-treatment periods. […] Treatment was initiated on the first day of experimentation (Day 1) and lasted 21 days. Animals from group 1 were fed the standard chow for the duration of the study and received water orally twice daily (ND: normal diet control). Mice from group 2 were given the high fat diet (HFD; 60% of calories from fat) starting on day 1 of experimentation and until day 21 of the study. These mice also received water by oral gavage and served as the high fat diet control (ND→HFD). Mice from group 3 and 4 were also fed the high fat diet upon start of treatment on day 1 and for the duration of the study but were treated orally twice daily with 100 and 150 mg/kg of 4-OH. From day 1 to day 21 of the study, body weight and food consumption were measured daily.

[3] = tested on: dietary obese rat model; test: Energy balance (VO2, respiratory quotient) in dietary obese rat model, prevention and reversal studies; assay type: in vivo, male Wistar rats
Protocol: The effect of 4-OH on energy balance was assessed in the dietary obese rat model. In these studies, male Wistar rats were administered a high fat/high sucrose diet (65.4% fat) and treated chronically with 4-OH. Each study consisted of 4 groups of animals. The groups studied were normal chow fed rats, rats fed a high fat/high sucrose diet and rats fed a high fat high sucrose diet and orally administered 4-OH at 100 mg/kg twice per day. These three groups had access to food ad libitum throughout the study. A fourth group fed the same number of Kcal (or similar energy intake) as the 4-OH group was also included to investigate drug effects that may occur in addition to changes in food intake. Two studies were performed: one to determine whether 4-OH could prevent the development of obesity (prevention study) and the other to determine whether 4-OH could reverse established obesity (reversal study). In the prevention study, male Wistar rats were administered the high fat/high sucrose diet for 5 weeks. During the first week of diet administration, the rats were adapted to receiving increasing doses of 4-OH. In the reversal of obesity study, the animals were first made obese by feeding the high fat/high sucrose diet for 28 days. This feeding regime continued for the duration of the study. After the period of obesity induction, the rats were also adapted to receiving increasing doses of 4-OH during a one week period. After the adaptation period, 4-OH was orally administered at a dose of 100 mg/kg twice per day for the following 4 week period in both treatment protocols. The ability of 4-OH to influence energy expenditure was determined by indirect calorimetry. On the 21st day of both the prevention and reversal studies, rats were placed into metabolic cages and energy expenditure was assessed by determining oxygen consumption. The effect of 4-OH on oxygen consumption during the day/night cycle on Day 21 of both the prevention and reversal of obesity studies is shown in FIGS. 27A and 27B. The respiratory quotient (RQ) was calculated in these studies from both the quantity of oxygen consumed and the quantity of carbon dioxide produced while the animals were present in the metabolic chambers. A RQ of 1 is indicative that the animals are burning pure carbohydrate as the energy source.

[4] = tested on: white adipocytes; test: Release and uptake of free fatty acids by ex vivo cultured white adipocytes of treated rats; assay type: cell-based, Wistar rats
Source text: A total of 60 animals were used in the study. The animals were distributed into 6 groups; 1 group was fed standard chow, 1 group was fed a high fat, high sucrose (HFHS) diet with 28 days treatment, 1 untreated control group was fed a HFHS diet, and 1 untreated group was fed a HFHS diet, but with caloric intake restricted to match the caloric intake of the 4-OH treated animals (pair-fed animals). A fifth group was fed a high fat, high sucrose (HFHS) diet with 28 days treatment and received an acute oral administration of 4-OH just prior to experimentation on Day 29 of the study, and a sixth group was fed a HFHS diet, but with caloric intake restricted to match the caloric intake of the 4-OH treated animals receiving an acute oral administration of 4-OH on Day 29 of the study (pair-fed animals). Each group was composed of 10 animals. […] Body weights were measured once weekly from week 1 to week 4 of the study. The white adipose tissues of non-treated and treated rats were collected and cultured ex vivo. After 2 hours of culture, the relative release and uptake of free fatty acids by the adipocytes was measured in absence or presence of insulin, and standardized on the basis of DNA content of the cultures.

[5] = tested on: CPT1; test: RT-PCR gene expression in adipocytes of treated rats: CPT1; assay type: in vivo; conditions: data not shown
Protocol: As the ex vivo studies on adipocytes indicated the lipolytic effect of drug was due to chronic exposure (see previous example), a role in gene regulation was assessed. RT-PCR was used to assess the expression of genes in the adipocytes from treated and control animals.

## C[C@@H]([C@H](C)O)[C@H](N)C(=O)O [Compound 14a, (2S,3R,4S)-4-Hydroxyisoleucine]
[1]; 75 mg/kg, Days 7 to 21
  Significance vs controls (P; body weight and body weight gain): P < 0.05
[1]; 100 mg/kg, Days 7 to 21
  Significance vs controls (P; body weight and body weight gain): P < 0.05
[1]; 125 mg/kg, Days 6 to 21
  Significance vs controls (P; body weight and body weight gain): P < 0.05
[1]; 150 mg/kg bid
  body weight plateau: approximately 30 gm
  body weight reduction: 13 gm
[1]; 150 mg/kg bid, day 21
  visual appearance of animals: visually indisingishable from lean mice of the same age
[1]; 150 mg/kg, Days 5 to 21
  Significance vs controls (P; body weight and body weight gain): P < 0.05
[1]; 50, 75, 100, 125 and 150 mg/kg bid, oral, fixed dose, 21 days
  body weight: dose-dependent reduction in body weight
[1]; end of treatment, epididymal fat (FIG. 17C)
  weight of fat tissues: concomitant reduction in the weight of fat tissues
[1]; highest doses, each of the 3 weeks, p<0.05
  food intake: reduction in food intake at the highest doses administered
[2]; 100 mg/kg
  transient increase of caloric intake: less pronounced
[2]; 150 mg/kg
  transient increase of caloric intake: completely abolished this increase of caloric intake
[2]; 150 mg/kg, day 2 to day 6 of treatment
  caloric intake: even lower than mice fed the standard chow
[2]; 100 and 150 mg/kg orally twice daily, 21 days
  weight gain induced by high fat feeding: completely prevented
[2]; 100 and 150 mg/kg, after 21 days, p<0.01
  epididymal fat weight: prevented significantly the increase of weight of the epididymal fat
[2]; highest dose (150 mg/kg), high fat diet
  body weight compared to ND mice: decreased body weight compared to mice fed the standard chow
[3]; 100 mg/kg twice per day
  respiratory quotient, night phase: not reduced
[3]; 100 mg/kg twice per day, Day 21
  oxygen consumption per kg of body weight, night phase: significantly enhanced relative to both the pair fed and control groups of animals
[3]; 100 mg/kg twice per day, Day 21, prevention and reversal studies
  oxygen consumption (VO2), light phase: essentially identical
[3]; 100 mg/kg twice per day, vs pair fed animals
  respiratory quotient (fuel source), day phase: burn proportionally more fat than pair fed animals
[3]; 100 mg/kg twice per day, vs pair fed control groups
  VO2 expressed per rat: greater
[3]; reversal study, vs pair fed and vehicle treated animals
  respiratory quotient (fuel source), day phase: proportionally more fat than both the pair fed and vehicle treated animals
[4]; 2 hours of culture
  fatty acid uptake in presence of insulin: not significantly different across all groups
[4]; 2 hours of culture, absence of insulin, vs pair-fed groups, p<0.01
  basal fatty acid release: significant increased basal fatty acid release
[4]; vs pair fed groups and HFHS control, p<0.01
  insulin stimulated release of fatty acid: significantly increased
[5]
  expression of CPT1: Upregulation
